The source of these data is publication PMC11335211, “In vivo photocontrol of orexin receptors with a nanomolar light-regulated analogue of orexin-B” (Cellular and Molecular Life Sciences: CMLS, 2024).

Series [1] deals with T1, hOX2 (Homo sapiens, UniProt O43614).
T1 sequence (O43614 1-444): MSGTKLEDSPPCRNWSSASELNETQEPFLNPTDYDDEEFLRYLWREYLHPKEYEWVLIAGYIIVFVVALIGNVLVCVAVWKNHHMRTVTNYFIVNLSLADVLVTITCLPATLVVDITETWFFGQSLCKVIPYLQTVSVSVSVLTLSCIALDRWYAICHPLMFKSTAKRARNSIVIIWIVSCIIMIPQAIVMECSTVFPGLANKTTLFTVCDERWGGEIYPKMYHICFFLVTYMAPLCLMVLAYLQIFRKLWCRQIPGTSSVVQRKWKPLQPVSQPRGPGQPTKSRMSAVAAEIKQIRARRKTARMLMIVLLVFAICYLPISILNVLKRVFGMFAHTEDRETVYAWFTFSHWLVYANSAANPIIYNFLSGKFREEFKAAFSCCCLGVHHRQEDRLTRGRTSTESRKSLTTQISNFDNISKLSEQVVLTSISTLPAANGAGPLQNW
In words: Radioligand competitive binding assay ([3H]EMPA). Set-up: expressed in transfected cells; membranes. The text has this: The affinity towards OX2 was studied in a competitive radioligand binding assay on membranes derived from HEK-293 cells stably transfected with the human receptor. [^3H]EMPA, an OX2-selective orthosteric antagonist, was used as radioactive tracer to quantify residual binding after competitive displacement in the presence of the unlabeled ligands.^3 Wild-type OX-B and almorexant, a non-selective OX1 and OX2 antagonist, served as controls.^4
[^3H]EMPA (specific activity 27 Ci/mmol) and almorexant were synthesized at Janssen Research & Development LLC (San Diego, CA), while orexin-B was obtained from Bachem (Torrance, CA).
Cell membranes were prepared from a stable pool of HEK-293 cells transfected with the human OX2. Test compounds were dissolved in DMSO (10 mM stock solutions) and diluted in Dulbecco’s phosphate-buffered saline supplemented with 0.1% bovine serum albumin (BSA). Competition studies were performed by incubating the membranes with the OX2-selective antagonist [^3H]EMPA (2 nM) and different concentrations of the test compounds (7 concentrations ranging from 10^−9 to 10^−6 M). After a 60-minute incubation at rt, binding reactions were filtered to separate the excess of free ligand from the membranes. Filters were then counted for radioactivity in a scintillation counter. Nonspecific binding was determined in the presence of 10 µM almorexant.
Specific binding was determined and plotted as a function of the concentration of the compound using GraphPad Prism v8.3.1 (GraphPad Software, San Diego, USA). Data were analyzed by nonlinear regression using a one-site competition model.

On the set-up of series [2]: method as in 2 sources, one per row (each row's own in cited_ref): ref 75–77 = [75]; PMID 10087007; 75. Kastin AJ Akerstrom V Orexin A but not orexin B rapidly enters brain from blood by simple diffusion J Pharmacol Exp Ther 1999 289 219 223 10087007 || [76]; PMID 12626669; doi:10.1113/jphysiol.2002.038729; 76. John J Wu M-F Kodama T Siegel JM Intravenously administered hypocretin-1 alters brain amino acid release: an in vivo microdialysis study in rats J Physiol 2003 548 557 562 10.1113/jphysiol.2002.03 || [77]; PMID 14746374; doi:10.1093/sleep/26.8.953; 77. Fujiki N Yoshida Y Ripley B Mignot E Nishino S Effects of IV and ICV hypocretin-1 (orexin A) in hypocretin receptor-2 gene mutated narcoleptic dogs and IV hypocretin-1 replacement therapy in a hyp ||| ref 75 = [75]; PMID 10087007; 75. Kastin AJ Akerstrom V Orexin A but not orexin B rapidly enters brain from blood by simple diffusion J Pharmacol Exp Ther 1999 289 219 223 10087007. To be noted: intravenous administration or blood-free perfusion in mammals; cited from earlier work.

In series [3] the test system is OX2. Particulars: in words; cited from earlier work. The text has this:
(§1) Among these, a family of neuroexcitatory peptides known as orexins (or hypocretins) is critically involved in regulating sleep and wakefulness, energy homeostasis, and reward. Orexin signaling is mediated by two closely related G protein-coupled receptors (GPCRs) – OX1 and OX2 (orexin) receptors – which are strongly conserved among mammals. While orexin cell bodies are concentrated in the hypothalamic area, orexin receptors are widely expressed in the central nervous system (CNS). Their endogenous ligands are two peptides, named ...

The subject of series [4] is OX1. Particulars: in words; cited from earlier work.
Excerpt: as §1

In series [5] the test system is OX1 receptor. To be noted: membrane-based binding assay; ref Langmead et al., 5 (SI); cited from earlier work. The text has this:
Although the lack of binding with all three forms of OX-B - including the native ligand control - came unexpected, similar findings had already been observed for the OX1 receptor.

Broadly, the Ki is a dissociation constant, usually derived from enzyme kinetics or from competition with a known ligand. In the case of `CNC(=O)[C@@H](c1ccccc1)N1CCc2cc(OC)c(OC)cc2[C@@H]1CCc1ccc(C(F)(F)F)cc1` [almorexant], the Ki in series [1] worked out at 3 nM. In series [1] (control ligands, HEK-293-hOX2 membranes, [3H]EMPA 2 nM, 60 min rt, 10^-9 to 10^-6 M, two independent experiments in triplicates), the “inhibition of [3H]EMPA binding” value was “fully displaced the radioligand”.
Regarding “OX-A: endogenous orexin peptide with two disulfide bridges (QPLPDCCRQKTCSCRLYELLHGAGNHAAGILTL; not fully specified; Orexin-A; UniProt O43612 34-66, looked up)”, the blood-brain barrier penetration result in series [2] is given as “penetrate the blood-brain barrier by simple diffusion”. Besides, the “affinity at OX2” value in series [3] is recorded as “high affinity”. The “affinity at OX1” value in series [4] was “high affinity”. For the same molecule, in series [5], the “occupation of OX1 orthosteric site versus [3H]SB-674042” value was “failed to occupy the receptor orthosteric site”.
